Measured values from PubChem BioAssay (NCI).
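Following 48 hours of exposure in 96-well plates, responses at five concentrations were used to interpolate endpoints linearly. The concentration for 50% growth inhibition is given as GI50. The concentration for full growth arrest is given as TGI.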

Assays:
Experiment in all cases: NCI anticancer screen, dose series, 48 h
[1] = tested on: UACC-257 melanoma
[2] = tested on: SK-MEL-28 melanoma
[3] = tested on: OVCAR-5 ovarian
[4] = tested on: SK-OV-3 ovarian
[5] = tested on: M14 melanoma
[6] = tested on: OVCAR-4 ovarian
[7] = tested on: NCI-H460 lung
[8] = tested on: ACHN renal
[9] = tested on: MCF7 breast
[10] = tested on: DU-145 prostate

Structure (SMILES)	TGI [1] [µM]	TGI [2] [µM]	TGI [3] [µM]	TGI [4] [µM]	TGI [5] [µM]	TGI [6] [µM]	TGI [7] [µM]	TGI [8] [µM]	TGI [9] [µM]	TGI [10] [µM]	GI50 [2] [µM]	GI50 [9] [µM]	GI50 [4] [µM]	GI50 [8] [µM]	GI50 [1] [µM]	GI50 [3] [µM]	GI50 [10] [µM]	GI50 [5] [µM]	GI50 [7] [µM]	GI50 [6] [µM]
[N-]=[N+]=C1C(=O)C2CC3CC1CC2C3 (stereo not drawn)	> 100	> 100	> 100	> 100	> 100	> 100	> 100	> 100												
C/C=C(\C)C(=O)OC1C2C(C)=CC(=O)C(O)C2(C)C2C3(O)OCC24C1OC(=O)C(OC(C)=O)C4C(C)C3O (stereo not drawn)	0.0496	0.0397	1.53	1.12		0.413	0.038													
CCSC1=N/C(=C\c2ccco2)C(Nc2ccc(C)cc2)=N1		> 100	> 100	> 100	> 100			> 100	> 100	> 100										
COc1ccc2c(c1)C(=O)c1c-2n(CCCN=[N+]=[N-])c(=O)c2cc([N+](=O)[O-])ccc12	> 100	> 100	> 100	28.1	1.3		0.0469		4.83		15.1	< 0.001	7.14	0.0443						
CSc1nc2nccnc2c(=O)[nH]1	> 100	> 100	> 100	> 100	> 100	> 100	> 100	> 100												
CC1=C(C(=O)O)N2C(=O)[C@@H](NC(=O)C(c3ccccc3)N3CSC(=S)N(C(C)C)C3)C2SC1 (stereo partly drawn)	> 100	> 100	> 100	> 100	> 100	> 100	> 100	> 100												
CC(=O)OC(OC(C)=O)c1c2ccccc2cc2ccccc12	41		75.6	52.4	44.8		31.8	61.4	40.7	> 100										
CC(C)(Oc1ccc2c(=O)cc(-c3ccc(Cl)cc3)oc2c1)C(=O)Nc1c(Cl)cccc1Cl	> 100	> 100	> 100	> 100	> 100		> 100													
CC1=C(O)C(=O)C2C(=O)C1C(C)C2c1ccccc1 (stereo not drawn)	> 100	> 100	> 100	> 100	> 100	> 100		> 100												
O=C(N/N=C\c1ccc(N(CCCl)CCCl)cc1)c1cccnc1	> 100	> 100	> 100		> 100		> 100	> 100	> 100	> 100	> 100	20.9		31.6	60.6	> 100	11.4	60.2	3.83	
N#CC12CC(C=O)=C(N)C1(C#N)CC(C=O)=C2N (stereo not drawn)	> 100	> 100	> 100	> 100	> 100			> 100	> 100	> 100										
COc1cc(/C=C2\C(=O)Nc3ccc(Cl)cc32)cc(OC)c1OC	> 100	> 100	62.3	33.8		> 100	> 100	> 100	> 100		> 100	26	13.4	23.5	29.5	21.2			24.2	43.9
CCCNC(=O)Cn1c2c(c3ccccc31)CCCC2	> 100	> 100	> 100	> 100	> 100	> 100	> 100	> 100	> 100											
CCOC(=O)NC(=O)c1cn(CCN(CCO)C(=O)NCCCCCCNC(=O)N(CCO)CCn2cc(C(=O)NC(=O)OCC)c(=O)[nH]c2=O)c(=O)[nH]c1=O	> 100	> 100	> 100			> 100	> 100		> 100											
O=C([O-])c1ccccc1Nc1ccccc1C(=O)[O-].[OH3+].[Zn+2]	21.5	40.7	> 100	39	> 100	39.1	> 100	> 100												
Cc1ccc(C(=O)C2C=C(c3ccc(C)cc3)SC3C=CCC32)cc1 (stereo not drawn)	54.3	33.9	44.4	54.3	36.4	75.7	37.3	47.7		> 100										
N/C(=C\c1ccc(/C=C(\NC(=O)c2ccccc2)c2nc3c([nH]2)C(=O)c2ccccc2C3=O)cc1)c1nc2c([nH]1)C(=O)c1ccccc1C2=O	36.2	31.3	40.5	48.8	30.4	34	36.4	52.6												
COC(=O)CC(C(C(=O)OCc1ccccc1)C(C)O)N1C(=O)OCC1c1ccccc1 (stereo not drawn)	> 100	> 100			> 100	> 100	> 100	> 100												
Nc1nncc2n[nH]nc12	> 100	> 100	> 100		> 100		> 100	> 100	> 100	> 100										
